Assay [1] deals with T1, full-length recombinant human NEK7 (Homo sapiens, UniProt Q8TDX7).
T1 construct: full-length recombinant human NEK7; GST (N); purchased SignalChem N09-10G; host or cells: Sf9 insect cells (baculovirus)
Briefly: NEK7 enzymatic assay ([33P]-ATP, casein substrate). The class given is biochemical. In short, it runs like this: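 GST-tagged enzyme, baculovirus-expressed in Sf9 cells, was mixed with casein in 20 mM Hepes pH 7.5, 10 mM MgCl2, 1 mM EGTA, 0.02% Brij35, 2 mM DTT, 1% DMSO. Compounds (3-fold series, 10 μM–0.5 nM) were preincubated 20 min at RT, then [33P]-ATP was added for 2 h at RT. P81 filter-bound radioactivity was expressed as % of vehicle activity and fitted to IC50.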

For the next assay, the system named is IL-1β release. Briefly: IL-1β release assay (PMA-differentiated THP-1 cells, LPS + nigericin, cleaved IL-1β by JESS). Type of assay: cell-based. The conditions noted are these: Homo sapiens. The procedure:
(§1) Approximately 1.5 million THP-1 cells were plated in each well of a 6-well TC plate and incubated with 40 nM PMA in RPMI (10% FBS, 1% Penstrep) for 24 hours. The media was then removed and cells were rested in RPMI (10% FBS, 1% Penstrep) for 24 hours after which time the media was removed and cells were pre-treated for 2 hours with various concentrations of compounds of interest (typically serial 3-fold dilution in RPMI +5% FBS, concentrations ranging from 1 μM to 0.5 nM) in RPMI (5% FBS). The media was again removed and cells were incubated with 250 ng/mL LPS and compounds of interest (concentrations as above) in RMPI (5% FBS) for 2 hours. The media was removed for a last time and cells were incubated with 20 μM nigericin and compounds of interest (concentrations as above) in Opti-MEM for 30 minutes. Cell media was then collected and the amount of cleaved IL-1β was determined using a JESS instrument (Protein Simple) and standard protocols. Cleaved 1-PD antibody was obtained from Cell Signaling (catalogue #83186S) and was used at 1:20 dilution in antibody diluent 2. Protein Simple 1× anti-Rabbit HRP secondary antibody was used along with Protein Simple luminol and peroxide for chemiluminescent detection. Primary antibody incubation time was increased from 30 minutes to 60 minutes.
as §1, with “RPMI+5%” for “RPMI +5%”, “Il-1β” for “1-PD”

Where [2] appears, read: comparative compounds of Structure (II).
Setting [3] is: THP-1, comparative compounds of Structure (II), read-out: IL-1β release IC50.
[4] abbreviates: Table 2a, recombinant human NEK7, casein substrate.
Where [5] appears, read: Table 2a, THP-1 cells, LPS + nigericin, read-out: II-1β release IC50.
Setting [6] is: Table 2b, recombinant human NEK7, casein substrate.
[7] abbreviates: Table 2b, THP-1 cells, LPS + nigericin, read-out: Il-1β release IC50.

SMILES strings stand for the structures. Read-outs that look alike come from different tables or passages of the source.

T1 sequence (Q8TDX7 whole entry): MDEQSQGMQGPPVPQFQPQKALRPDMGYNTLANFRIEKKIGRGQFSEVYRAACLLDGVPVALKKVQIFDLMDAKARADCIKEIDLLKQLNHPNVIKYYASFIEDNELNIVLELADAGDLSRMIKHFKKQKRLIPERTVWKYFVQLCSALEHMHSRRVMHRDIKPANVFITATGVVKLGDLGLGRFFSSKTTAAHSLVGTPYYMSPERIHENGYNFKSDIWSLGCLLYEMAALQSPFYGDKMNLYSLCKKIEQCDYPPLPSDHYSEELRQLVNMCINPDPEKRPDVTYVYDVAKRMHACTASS

A word on the IC50: it is the midpoint of a concentration-inhibition curve. In the case of `CC(C)n1nc(-c2ccc3c(c2F)CCN3C(=O)Cc2cc(C(F)(F)F)ccc2F)c2c(N)ncnc21` [II-11, 1-(5-(4-amino-1-isopropyl-1H-pyrazolo[3,4-d]pyrimidin-3-yl)-4-fluoroindolin-l-yl)-2-(2-fluoro-5-(trifluoromethyl)phenyl)ethan-1-one], the IC50 in assay [1] (setting [2]) was less than 0.15 µM; in the assay on IL-1β release (setting [3]), more than 1 µM.
The matching figures for `Nc1ncnc2c1c(-c1ccc3c(c1F)CCN3C(=O)Cc1cc(C(F)(F)F)ccc1F)nn2C1COC1` [II-12, 1-(5-(4-amino-1-(oxetan-3-yl)-1H-pyrazolo[3,4-d]pyrimidin-3-yl)-4-fluoroindolin-1-yl)-2-(2-fluoro-5-(trifluoromethyl)phenyl)ethan-1-one]: less than 0.15 µM and more than 1 µM.
Take `Nc1ncnc2c1c(-c1ccc3c(c1F)CCN3C(=O)Cc1ccc(F)c(C(F)(F)F)c1)nn2C1CCOCC1` [II-14, 1-(5-(4-amino-1-(tetrahydro-2H-pyran-4-yl)-1H-pyrazolo[3,4-d]pyrimidin-3-yl)-4-fluoroindolin-1-yl)-2-(4-fluoro-3-(trifluromethyl)phenyl)ethan-1-one]: the IC50 was less than 0.15 µM in assay [1] (setting [2]) and more than 1 µM in the assay on IL-1β release (setting [3]).
With `Nc1ncnc2c1c(-c1ccc3c(c1Cl)CCN3C(=O)Cc1cc(C(F)(F)F)ccc1F)cn2C1CC1` [II-16, 1-(5-(4-amino-7-cyclopropyl-7H-pyrrolo[2,3-d]pyrimidin-5-yl)-4-chloroindolin-1-yl)-2-(2-fluoro-5-(trifluoromethyl)phenyl)ehtan-1-one], the IC50 in assay [1] (setting [2]) was less than 0.15 µM; in the assay with IL-1β release (setting [3]) it was more than 1 µM.
The matching figures for `Nc1ncnc2c1c(-c1ccc3c(c1F)CCN3C(=O)Cc1cc(C(F)(F)F)ccc1F)cn2C1CC1` [II-17, 1-(5-(4-amino-7-cyclopropyl-7H-pyrrolo[2,3-d]pyrimidin-5-yl)-4-fluoroindolin-1-yl)-2-(2-fluoro-5-(trifluoromethyl)phenyl)ethan-1-one]: less than 0.15 µM and more than 1 µM.
Regarding `CC(C)(C)c1cc(NC(=O)Nc2ccc(-c3nn(C4COC4)c4ncnc(N)c34)cc2F)on1` [Ia-12, 1-(4-(4-amino-1-(oxetan-3-yl)-1H-pyrazolo[3,4-d]pyrimidin-3-yl)-2-fluorophenyl)-3-(3-(tert-butyl)isoxazol-5-yl)urea], the IC50 (in assay [1] (setting [4]); in the assay on IL-1β release (setting [5])) was less than 0.15 µM each time.
For `CC(C)(C)c1cc(NC(=O)Nc2ccc(-c3nn(C4CC4)c4ncnc(N)c34)cc2F)on1` [Ia-13, 1-(4-(4-amino-1-cyclopropyl-1H-pyrazolo[3,4-d]pyrimidin-3-yl)-2-fluorophenyl)-3-(3-(tert-butyl)isoxazol-5-yl)urea], the IC50 (in assay [1] (setting [4]); in the assay on IL-1β release (setting [5])) was less than 0.15 µM in each case.
As to `CC(C)(C)c1cc(NC(=O)Nc2ccc(-c3nn(C4CCN(C5COC5)CC4)c4ncnc(N)c34)cc2F)on1` [Ia-14, 1-(4-(4-amino-1-(1-(oxetan-3-yl)piperidin-4-yl)-1H-pyrazolo[3,4-d]pyrimidin-3-yl)-2-fluorophenyl)-3-(3-(tert-butyl)isoxazol-5-yl)urea], the IC50 (in assay [1] (setting [4]); in the assay with IL-1β release (setting [5])) was less than 0.15 µM each time.
As to `Nc1ncnc2c1c(-c1ccc(NC(=O)Nc3cc(C4(C(F)(F)F)CC4)no3)c(F)c1)nn2C1CC1` [Ia-21], the IC50 (in assay [1] (setting [4]); in the assay with IL-1β release (setting [5])) was less than 0.15 µM in each case.
As for `Nc1ncnc2c1c(-c1ccc(NC(=O)Nc3cc(C4(C(F)(F)F)CC4)on3)c(F)c1)nn2C1CC1` [Ia-25, 1-(4-(4-amino-1-cyclopropyl-1H-pyrazolo[3,4-d]pyrimidin-3-yl)-2-fluorophenyl)-3-(5-(1-(trifluoromethyl)cyclopropyl)isoxazol-3-yl)urea], the IC50 (in assay [1] (setting [4]); in the assay with IL-1β release (setting [5])) was less than 0.15 µM each time.
Regarding `CC(C)(C)c1cc(NC(=O)Nc2ccc(-c3nn(C4CC4)c4ccnc(N)c34)cc2F)on1` [Ia-30, 1-(4-(4-amino-1-cyclopropyl-1H-pyrazolo[4,3-c]pyridin-3-yl)-2-fluorophenyl)-3-(3-(tert-butyl)isoxazol-5-yl)urea], the IC50 (in assay [1] (setting [4]); in the assay with IL-1β release (setting [5])) was less than 0.15 µM each time.
Regarding `CC1(c2cc(NC(=O)Nc3ccc(-c4nn(C5CC5)c5ncnc(N)c45)cc3F)on2)CC1` [Ia-32, 1-(4-(4-amino-1-cyclopropyl-1H-pyrazolo[3,4-d]pyrimidin-3-yl)-2-fluorophenyl)-3-(3-(1-methylcyclopropyl)isoxazol-5-yl)urea], the figures for the IC50 (in assay [1] (setting [4]); with IL-1β release (setting [5])) were less than 0.15 µM and 0.151 to 0.3 µM, respectively.
The matching figures for `CC(C)(C)c1nnc(NC(=O)Nc2ccc(-c3nn(C4CC4)c4ncnc(N)c34)cc2F)s1` [Ia-33, 1-(4-(4-amino-1-cyclopropyl-1H-pyrazolo[3,4-d]pyrimidin-3-yl)-2-fluoropbenyl)-3-(5-(tert-butyl)-1,3,4-thiadiazol-2-yl)urea]: 0.501 to 1.5 µM and 0.301 to 0.5 µM.
The corresponding values for `Nc1nccc2c1c(-c1ccc(NC(=O)Nc3cc(C4(C(F)(F)F)CC4)no3)c(F)c1)nn2C1CC1` [Ia-45, 1-(4-(4-amino-1-cyclopropyl-1H-pyrazolo[4,3-c]pyridin-3-yl)-2-fluorophenyl)-3-(3-(1-(trifluoromethyl)cyclopropyl)isoxazol-5-yl)urea] are 0.151 to 0.3 µM and 0.151 to 0.3 µM.
`Cc1c[nH]c2nccc(Oc3ccc(NC(=O)Nc4cc(C(C)(C)C)nn4-c4ccccc4)c(F)c3)c12` [Ib-4, 1-(3-(tert-butyl)-1-phenyl-1H-pyrazol-5-yl)-3-(2-fluoro-4-((3-methyl-1H-pyrrolo[2,3-b]pyridin-4-yl)oxy)phenyl)urea]: the IC50 in assay [1] (setting [6]) is 0.501 to 1.5 µM; in the assay with IL-1β release (setting [7]), less than 0.15 µM.
As to `Cc1cc2c(Oc3ccc(NC(=O)Nc4cc(C(C)(C)C)nn4-c4ccccc4)c(F)c3)ccnc2[nH]1` [Ib-5, 1-(3-(tert-butyl)-1-phenyl-1H-pyrazol-5-yl)-3-(2-fluoro-4-((2-methyl-1H-pyrrolo[2,3-b]pyridin-4-yl)oxy)phenyl)urea], the IC50 in assay [1] (setting [6]) is more than 1.5 µM; with IL-1β release (setting [7]), 0.151 to 0.3 µM.
Regarding `CC(C)(C)c1cc(NC(=O)Nc2c(F)cc(Oc3ccnc4[nH]cc(Cl)c34)cc2F)n(-c2ccccc2)n1` [Ib-8], the figures for the IC50 (in assay [1] (setting [6]); with IL-1β release (setting [7])) were more than 1.5 µM and 0.301 to 0.5 µM, respectively.
The corresponding values for `CC(C)(C)c1cc(NC(=O)Nc2ccc(Oc3ccnc4[nH]cc(Cl)c34)c(F)c2)n(-c2ccccc2)n1` [Ib-12, 1-(3-(tert-butyl)-1-phenyl-1H-pyrazol-5-yl)-3-(4-((3-chloro-1H-pyrrolo[2,3-b]pyridin-4-yl)oxy)-3-fluorophenyl)urea] are 0.501 to 1.5 µM and less than 0.15 µM.
The matching figures for `Cc1[nH]c2nccc(Oc3ccc(NC(=O)Nc4cc(C(C)(C)C)nn4-c4ccccc4)c(F)c3)c2c1Cl` [Ib-14]: 0.501 to 1.5 µM and more than 1 µM.
Turning to `CC(C)(C)c1cc(NC(=O)Nc2ccc(Oc3ccnc4[nH]cc(C5CC5)c34)cc2F)n(-c2ccccc2)n1` [Ib-18, 1-(3-(tert-butyl)-1-phenyl-1H-pyrazol-5-yl)-3-(4-((3-cyclopropyl-1H-pyrrolo[2,3-b]pyridin-4-yl)oxy)-2-fluorophenyl)urea], the IC50 was 0.501 to 1.5 µM in assay [1] (setting [6]) and less than 0.15 µM in the assay with IL-1β release (setting [7]).
As for `CN1CCN(Cc2ccc(NC(=O)Nc3ccc(-c4nn(C5CC5)c5ncnc(N)c45)cc3F)cc2F)CC1` [Id-27, 1-(4-(4-amino-1-cyclopropyl-1H-pyrazolo[3,4-d]pyrimidin-3-yl)-2-fluorophenyl)-3-(3-fluoro-4-((4-methylpiperazin-1-yl)methyl)phenyl)urea], the IC50 in assay [1] (Table 2d, recombinant human NEK7, casein substrate) was less than 0.15 µM; in the assay on IL-1β release (48 h, Table 2d, THP-1 cells, LPS + nigericin, read-out: IL-1β release IC50) it was less than 0.15 µM.
